From publication PMC12075686, “Structural basis of phosphorylation-independent nuclear import of CIRBP by TNPO3” (Nature Communications, 2025)

What was measured:
[1] = target: T1, TNPO3 WT (Homo sapiens, UniProt Q9Y5L0); experiment: ITC, ligand titrated into TNPO3 WT; format: binding; settings: ITC, TNPO3 WT
T1 sequence (Q9Y5L0 1-923): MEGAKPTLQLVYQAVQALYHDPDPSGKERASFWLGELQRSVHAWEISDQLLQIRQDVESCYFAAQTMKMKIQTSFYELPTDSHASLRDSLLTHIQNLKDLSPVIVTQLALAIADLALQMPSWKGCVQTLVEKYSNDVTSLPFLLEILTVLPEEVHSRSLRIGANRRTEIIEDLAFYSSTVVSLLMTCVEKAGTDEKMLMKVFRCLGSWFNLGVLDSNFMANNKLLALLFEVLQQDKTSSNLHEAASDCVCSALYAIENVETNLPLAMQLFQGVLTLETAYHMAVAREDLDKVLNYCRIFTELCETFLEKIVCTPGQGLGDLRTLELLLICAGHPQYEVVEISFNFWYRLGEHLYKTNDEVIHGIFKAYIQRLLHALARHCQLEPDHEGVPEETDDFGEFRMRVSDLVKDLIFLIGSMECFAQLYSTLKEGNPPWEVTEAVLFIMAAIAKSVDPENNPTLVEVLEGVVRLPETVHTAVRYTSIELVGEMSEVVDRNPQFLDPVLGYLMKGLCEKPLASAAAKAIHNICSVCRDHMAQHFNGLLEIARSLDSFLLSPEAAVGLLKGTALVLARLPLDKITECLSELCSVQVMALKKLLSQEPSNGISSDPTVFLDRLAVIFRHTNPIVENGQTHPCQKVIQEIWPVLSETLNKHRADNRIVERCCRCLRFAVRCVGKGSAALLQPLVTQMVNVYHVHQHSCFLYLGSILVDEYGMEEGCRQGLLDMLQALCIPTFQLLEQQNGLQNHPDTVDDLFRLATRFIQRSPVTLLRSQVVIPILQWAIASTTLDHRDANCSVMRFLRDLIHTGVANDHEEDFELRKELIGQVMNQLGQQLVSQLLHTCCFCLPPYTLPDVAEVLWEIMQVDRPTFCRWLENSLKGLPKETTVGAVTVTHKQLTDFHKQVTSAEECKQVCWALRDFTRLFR
Method: (§1) ITC has been performed by a Malvern Microcal VP-ITC at 25 °C for all binding studies. Samples have been dissolved in Tris buffer containing 50 mM Tris–HCl, 150 mM NaCl, 2 mM TCEP, and 0.04% NaN3 at pH 7.5. Binding studies of CIRBP^RSY and SRSF1^RS were performed with TNPO3 WT, and studies of CIRBP (157–172) and its mutants/phosphorylations were performed with TNPO3 C511A, respectively. Injection has been carried out by a syringe containing ligand solution of 100 μM, which adds ligand step-wise into the cell containing 10 μM TNPO3 during 28 injections of 10 μL each. Data analysis, curve fitting, and calculation of Kd, ΔH, and ΔS have been carried out using Origin-based 7.0 software provided by the manufacturer. All replicated ITC data are shown in Supplementary Fig. 6 and Supplementary Table 1.

[2] = test system: TNPO3; experiment: NMR binding studies with TNPO3 (1H-15N HSQC, 1H-13C HMQC, 1H 1D, STD); set-up: species or system human
Method: All NMR studies for TNPO3 were carried out using the wild type protein. Protein samples for ^1H-^13C HMQC were prepared at a concentration of 100 μM and equilibrated in a buffer containing 50 mM Tris–HCl, pH 6.7, 150 mM NaCl, 2 mM TCEP and 10% D2O. Spectral acquisitions for TNPO3 free and in complex with CIRBP^RSY and SRSF1^RS, respectively were performed at 298 K on a 700 MHz Bruker Avance III NMR spectrometer equipped with a TCI triple-resonance cryoprobe. The pulse program was sfhmqcf2gpph and the spectra were recorded with 32 scans, interscan delay of 1 s, 160 points in F1, 1024 points in F2, 5283.879 Hz spectral width in F1, and 11,160.714 Hz spectral width in F2. Spectra were processed using Topspin 4.1.3.
Spectral acquisitions for TNPO3 free and in complex with mCIRBP^RSY, pCIRBP^RSY, and pSRSF1^RS, respectively, were performed at 298 K on a 600 MHz Bruker Avance Neo NMR spectrometer equipped with a TXI 600S3 probehead. The pulse program was hmqcgpphwg and the spectra were recorded with 64 scans, interscan delay of 1 s, 200 points in F1, 1024 points in F2, 4545.455 Hz spectral width in F1, and 7812.500 Hz spectral width in F2. Spectra were processed using Topspin 4.3.0.
For ^1H-^15N HSQC spectra, protein samples were equilibrated in a buffer containing 50 mM Tris–HCl, pH 6.7, 150 mM NaCl, 2 mM TCEP, 0.04% NaN3, and 10% D2O (with additional 20 mM MgCl2 for CIRBP phosphorylation kinetics). Data were recorded at 298 K on the 600 MHz Bruker Avance Neo NMR spectrometer equipped with a TXI 600S3 probehead. The pulse program was hsqcetfpf3gpsi and was recorded with 8-16 scans, interscan delay of 1 s, 128 points in F1, 1024 points in F2, 1949.318 Hz spectral width in F1, and 9615.385 Hz spectral width in F2. Spectra were processed using Topspin 4.3.0.

[3] = target: T2, TNPO3 C511A (Homo sapiens, UniProt Q9Y5L0, C511A); experiment: ITC, ligand titrated into TNPO3 C511A; format: binding; settings: TNPO3 C511A
T2 construct: full-length (FL) WT human TNPO3 were generated by synthesizing codon-optimized DNA fragments; His6 (N, cleaved yes); protein A (N, cleaved yes); made in house; host or cells: Escherichia coli BL21-(DE3) Star
T2 sequence (Q9Y5L0 1-923 C511A): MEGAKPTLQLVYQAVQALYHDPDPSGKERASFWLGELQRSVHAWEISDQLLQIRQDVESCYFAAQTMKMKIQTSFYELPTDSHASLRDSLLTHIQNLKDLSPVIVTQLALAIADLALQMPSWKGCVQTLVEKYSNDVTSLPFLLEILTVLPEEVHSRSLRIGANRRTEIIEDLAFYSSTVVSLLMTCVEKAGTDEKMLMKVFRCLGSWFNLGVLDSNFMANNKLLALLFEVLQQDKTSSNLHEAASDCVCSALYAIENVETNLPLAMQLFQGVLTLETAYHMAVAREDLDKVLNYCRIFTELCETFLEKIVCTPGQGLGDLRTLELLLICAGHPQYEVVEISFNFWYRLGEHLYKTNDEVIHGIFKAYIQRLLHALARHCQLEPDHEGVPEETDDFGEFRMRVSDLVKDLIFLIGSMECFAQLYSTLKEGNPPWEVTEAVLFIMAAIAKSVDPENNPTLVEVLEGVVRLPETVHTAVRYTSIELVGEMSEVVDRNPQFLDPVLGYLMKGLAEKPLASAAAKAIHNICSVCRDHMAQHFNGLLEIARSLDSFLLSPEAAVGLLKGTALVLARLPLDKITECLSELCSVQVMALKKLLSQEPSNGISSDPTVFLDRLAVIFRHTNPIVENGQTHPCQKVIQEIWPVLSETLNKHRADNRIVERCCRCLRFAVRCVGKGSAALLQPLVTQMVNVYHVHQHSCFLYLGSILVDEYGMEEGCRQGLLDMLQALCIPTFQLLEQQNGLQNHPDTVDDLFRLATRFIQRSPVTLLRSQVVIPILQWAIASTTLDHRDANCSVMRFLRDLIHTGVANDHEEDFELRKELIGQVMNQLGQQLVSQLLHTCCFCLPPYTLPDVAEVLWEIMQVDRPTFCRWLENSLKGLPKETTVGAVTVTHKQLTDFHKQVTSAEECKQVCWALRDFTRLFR
Method: as §1

[4] = test system: transportin-1 (TNPO1); settings: cited from earlier work
Text: CIRBP, a nuclear protein known for its role in regulating mRNA stability and DNA repair, translocates from the nucleus to the cytoplasm under stress condition, forming stress granules[31],[32]. It is a typical RNA-binding pro ... || page 4: REVIEWER COMMENTS Comments are highlighted with a green background Reviewer #1 (Remarks to the Author) TNPO3 is an important karyopherin involved in some human pathologies and HIV-1 infection. Its best characterized biological function is in nuclear import of SR and SR-like repeat containing proteins, such as SFRS1 and CPSF6. […] Intriguingly, TNPO3 engages these alternative NLSs via the same region, which it ...

With “H-GSRDYYSSRSQSGGYSDRSSGGSYRDSYDSYATHNE-OH [CIRBP^RSY]” the ΔS ([1]; replicate 1 (rep1)) was “–101 cal/mol/deg”, the ΔS ([1]; replicate 2 (rep2)) was “–192 cal/mol/deg” and the “change of peptide 1H 1D NMR signals with sub-stoichiometric TNPO3” value ([2]; 100 µM RSY regions and 10 µM TNPO3 (peer review reply)) was “slight decrease of peptide signal intensity”. For the same substance, the “chemical shift perturbations of TNPO3 methyl groups upon ligand addition (1H,13C HMQC)” value ([2]; 100 µM [IM-methyl 13C] labeled TNPO3, one stoichiometric equivalent of ligand, 298 K, pH 6.7) was “led to CSPs of several TNPO3 ^1H,^13C cross-peaks”, the ΔS ([3]; rep1, reference for alanine mutation) was “–124 cal/mol/deg” and the ΔS ([3]; rep2, reference for alanine mutation) was “–242 cal/mol/deg”. The “fold lower binding affinity for TNPO1 than for TNPO3” value [4] was “approximately 70”.
